We go through five molecules from patent US5914319A, “Antithrombotic agents” (Eli Lilly and Company, priority 1995, dated 1999).

Structures can show the parent of a compound that is named as a salt. Where two headings read alike, the source gives them in different places.

For series [1] the following is noted: early clinical studies, Simoons et al., Circulation, 90, I-231 (1994); cited from earlier work.
Series [2] deals with Human plasma. In words: Human plasma anticoagulation, thrombin time (TT). The series is classed as biochemical. Conditions: concentration required to double the thrombin time, linear extrapolation. In outline:
(§1)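 Prolongation of human plasma clotting was measured for PT (thromboplastin reagent), APTT (Actin, 120 s, then 0.02M CaCl2) and TT (bovine thrombin, 10 NIH units/mL). Concentration needed for a doubled time was estimated by linear extrapolation.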

Series [3] in a line: Index of bioavailability (% Relative Activity from plasma TT time course). The following applies: dose-adjusted AUC of plasma TT time course, p.o. versus i.v. bolus. The series is classed as in vivo. Here is the method: Parke Davis) at 37° C. […] Assays are done in duplicate and averaged. […] Each sample population represented alternating sequential time points.
Series [4] deals with T1, Bovine trypsin (Bos taurus, UniProt P00760).
T1 construct: Bovine trypsin is purchased from Worthington Biochemicals; purchased Worthington Biochemicals, Freehold, N.J
T1 sequence (P00760 24-246): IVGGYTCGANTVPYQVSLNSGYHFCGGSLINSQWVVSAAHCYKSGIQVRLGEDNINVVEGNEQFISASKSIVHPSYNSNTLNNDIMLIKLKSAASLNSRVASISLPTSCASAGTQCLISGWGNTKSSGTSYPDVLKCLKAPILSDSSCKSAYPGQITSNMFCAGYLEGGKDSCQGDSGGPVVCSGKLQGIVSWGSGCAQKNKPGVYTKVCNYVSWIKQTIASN
The experiment in a line: Kass with other serine proteases: trypsin. Format: biochemical. Conditions: substrate N-Benzoyl-Phe-Val-Arg-p-nitroanilide.
Excerpt: (§3) Chromogenic substrates: N-Benzoyl-Ile-Glu-Gly-Arg-p-nitroanilide (for factor Xa); N-Cbz-D-Arg-Gly-Arg-p-nitroanilide (for factor IXa assay as the factor Xa substrate); Pyroglutamyl-Pro-Arg-p-nitroanilide (for Factor XIa and for aPC); H-D-Pro-Phe-Arg-p-nitroanilide (for factor XIIa); and Pyroglutamyl-Gly-Arg-p-nitroanilide (for urokinase); are purchased from KabiVitrum, Stockholm, Sweden, or from Midwest Biotech, Fishers, Ind. Bovine trypsin is purchased from Worthington Biochemicals, Freehold, N.J., and human plasma kallikrein from Kabi Vitrum, Stockholm, Sweden. Chromogenic substrate H-D-Pro-Phe-Arg-p-nitroanilide for plasma kallikrein is purchased from Kabi Vitrum, Stockholm, Sweden. […]

Series [5] addresses T2, tissue plasminogen activator (t-PA) (Homo sapiens, UniProt P00750).
T2 construct: purchased American Diagnostica, Greenwich, Conn
In words: Kass with fibrinolytic system proteases: t-PA. Format: biochemical. The following applies: substrate H-D-Ile-Pro-Arg-p-nitroanilide. How it is done:
(§2) By substantially following the procedures described above for human thrombin, and using other human blood coagulation system serine proteases and proteases of the fibrinolytic system with the appropriate chromogenic substrates, identified below, selectivity of the compounds of the present invention with respect to the coagulation factor serine proteases and with respect to the fibrinolytic system serine proteases are evaluated as well as their substantial lack of interference with serine proteases of the fibrinolytic system. […] This would be important to the therapeutic use of such agents as an adjunct to streptokinase, t-PA or urokinase thrombolytic therapy and to the use of such agents as an endogenous fibrinolysis-sparing (with respect to t-PA and urokinase) antithrombotic agent. In addition to the lack of interference with the amidase activity of the fibrinolytic proteases, such fibrinolytic system sparing can be studied by the use of human plasma clots and their lysis by the respective fibrinolytic plasminogen activators.

In series [6] the target is human thrombin (Homo sapiens, UniProt P00734). The experiment in a line: Inhibition of the amidase activity of thrombin (Kass). Format: biochemical.
For series [7], the system named is Human plasma. In words: Human plasma anticoagulation, activated partial thromboplastin time (APTT). Format: biochemical. The following applies: concentration required to double the APTT, linear extrapolation. In outline: as §1
Series [8] concerns Human plasma. In words: Human plasma anticoagulation, prothrombin time (PT). The series is classed as biochemical. The following applies: concentration required to double the PT, linear extrapolation. In outline:
as §1

Series [9] has as its target T3, Human plasmin (Homo sapiens, UniProt P00747).
T3 construct: Human plasmin is purchased from Boehringer Mannheim; purchased Boehringer Mannheim, Indianapolis, Ind
The experiment in a line: Kass with fibrinolytic system proteases: plasmin. Conditions: substrate H-D-Val-Leu-Lys-p-nitroanilide. Format: biochemical. How it is done: as §2

Series [10] deals with T4, factor Xa (Homo sapiens, UniProt P00742).
T4 construct: Human factors X, Xa, IXa, XIa, and XIIa are purchased; purchased Enzyme Research Laboratories, South Bend, Ind
In words: Kass with other serine proteases: factor Xa. Conditions: substrate N-Benzoyl-Ile-Glu-Gly-Arg-p-nitroanilide. Format: biochemical.
Excerpt: as §3

Where [11] appears, read: mean over a range of test compound concentrations, […].

T2 sequence (P00750 36-562): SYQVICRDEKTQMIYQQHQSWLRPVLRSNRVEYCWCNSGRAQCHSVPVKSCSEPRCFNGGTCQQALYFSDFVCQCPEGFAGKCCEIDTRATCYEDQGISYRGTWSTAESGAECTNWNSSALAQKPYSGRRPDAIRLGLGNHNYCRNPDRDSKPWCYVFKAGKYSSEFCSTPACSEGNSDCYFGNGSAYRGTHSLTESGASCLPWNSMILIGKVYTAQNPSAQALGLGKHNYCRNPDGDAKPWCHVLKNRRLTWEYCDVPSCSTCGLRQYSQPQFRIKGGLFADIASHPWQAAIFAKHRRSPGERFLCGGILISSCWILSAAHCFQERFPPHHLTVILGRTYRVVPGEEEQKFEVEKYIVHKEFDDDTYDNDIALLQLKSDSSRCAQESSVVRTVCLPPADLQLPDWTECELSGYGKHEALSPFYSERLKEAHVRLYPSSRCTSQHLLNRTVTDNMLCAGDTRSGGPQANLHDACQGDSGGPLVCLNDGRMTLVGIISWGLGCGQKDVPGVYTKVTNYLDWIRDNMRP
T3 sequence (P00747 581-810 limits assumed): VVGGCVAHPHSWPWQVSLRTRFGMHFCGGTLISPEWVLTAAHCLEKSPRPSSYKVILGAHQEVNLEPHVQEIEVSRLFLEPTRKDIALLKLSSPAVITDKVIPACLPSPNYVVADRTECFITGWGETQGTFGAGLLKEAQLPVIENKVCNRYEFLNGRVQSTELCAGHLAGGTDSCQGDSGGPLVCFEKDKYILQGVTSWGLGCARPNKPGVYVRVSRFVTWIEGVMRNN
T3 sequence (P00747 97-580 partner limits assumed): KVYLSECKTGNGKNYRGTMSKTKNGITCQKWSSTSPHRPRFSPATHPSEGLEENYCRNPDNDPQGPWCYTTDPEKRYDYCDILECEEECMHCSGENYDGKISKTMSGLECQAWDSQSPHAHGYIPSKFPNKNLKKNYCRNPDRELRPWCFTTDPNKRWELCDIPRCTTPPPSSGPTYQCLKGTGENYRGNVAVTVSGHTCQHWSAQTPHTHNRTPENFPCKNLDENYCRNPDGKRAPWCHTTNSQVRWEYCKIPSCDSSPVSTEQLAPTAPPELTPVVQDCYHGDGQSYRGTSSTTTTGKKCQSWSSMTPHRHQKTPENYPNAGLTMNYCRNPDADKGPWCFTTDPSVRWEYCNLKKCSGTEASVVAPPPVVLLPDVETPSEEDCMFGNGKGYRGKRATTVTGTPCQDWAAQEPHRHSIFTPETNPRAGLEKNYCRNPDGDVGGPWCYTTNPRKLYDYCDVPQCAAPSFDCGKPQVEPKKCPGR
T4 sequence (P00742 235-488 limits assumed): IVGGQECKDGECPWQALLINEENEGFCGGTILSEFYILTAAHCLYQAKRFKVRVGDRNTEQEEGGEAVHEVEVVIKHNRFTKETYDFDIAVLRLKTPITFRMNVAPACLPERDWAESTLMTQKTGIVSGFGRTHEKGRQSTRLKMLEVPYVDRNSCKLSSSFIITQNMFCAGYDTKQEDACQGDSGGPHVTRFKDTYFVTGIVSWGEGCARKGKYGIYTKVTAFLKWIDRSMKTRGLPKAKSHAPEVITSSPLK
T4 sequence (P00742 41-179 partner limits assumed): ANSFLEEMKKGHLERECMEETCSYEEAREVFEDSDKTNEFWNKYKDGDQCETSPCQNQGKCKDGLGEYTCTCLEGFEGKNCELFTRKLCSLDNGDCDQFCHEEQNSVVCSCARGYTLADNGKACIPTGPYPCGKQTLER

For the molecule `CN[C@H](Cc1ccccc1)C(=O)N1CCC[C@H]1C(=O)N[C@H](C=O)CCCNC(=N)N.O=S(=O)(O)O` [D-MePhe-Pro-Arg-H sulfate], in series [1], the anticoagulant in man result is given as “anticoagulant in man”.

`CCS(=O)(=O)N[C@H](Cc1ccccc1)C(=O)N1CCC[C@H]1C(=O)NCCCCN=C(N)N.Cl` [Example 1, EtSO2 -D-Phe-Pro-Agm.HCl]: the “Human Plasma Anticoagulation 2× Clotting time (ng/mL) TT” value in [2] is 250 ng/mL. Further, the “% oral/i.v. activity (Rat)” value in series [3] was determined as 8%.

On to `N=C(N)c1ccc(CNC(=O)[C@@H]2CCCN2C(=O)[C@@H](CC2CCCCC2)NCC(=O)O)cc1` [Example 48, HOOCCH2 -D-Cha-Pro-p-NHCH2 C6 H4 C(NH)NH2.HCl], for which the “Kass × 10^6 (L/mole) Trypsin” value in series [4] is on record as 250. × 10^6 L/mole. The “Human Plasma Anticoagulation 2× Clotting time (ng/mL) TT” value in series [2] was 2. ng/mL. Further, the “Kass × 10^6 (L/mole) t-PA” value in series [5] is listed as 0.05 × 10^6 L/mole. Moreover, the “Kass × 10^6 (L/mole) Human Thrombin” value in series [6] (setting [11]) is given as 4,100 × 10^6 L/mole. The “Human Plasma Anticoagulation 2× Clotting time (ng/mL) APTT” value in series [7] is recorded as 33 ng/mL. In [8], the “Human Plasma Anticoagulation 2× Clotting time (ng/mL) PT” value is on record as 59 ng/mL. In series [9], the “Kass × 10^6 (L/mole) Plasmin” value was 0.43 × 10^6 L/mole. Also, the “Kass × 10^6 (L/mole) Xa” value in series [10] is on record as 5.5 × 10^6 L/mole.

Regarding “EtSO2 -D-Phe-Pro-p-NHCH2 --C6 H4 C(=NH)NH2.HCl [Example 23]”, the “Human Plasma Anticoagulation 2× Clotting time (ng/mL) TT” value in [2] is on record as 7 ng/mL. Besides, in series [6] (setting [11]), the “Kass × 10^6 (L/mole) Human Thrombin” value is listed as 770 × 10^6 L/mole. In series [7], the “Human Plasma Anticoagulation 2× Clotting time (ng/mL) APTT” value is reported as 86 ng/mL. In addition, the “Human Plasma Anticoagulation 2× Clotting time (ng/mL) PT” value in series [8] is reported as 120 ng/mL.

Turning to “EtSO2 -Phg-cis-Ohi-p-NHCH2 C6 H4 C(NH)NH2.HCl [Example 44]”, the “Human Plasma Anticoagulation 2× Clotting time (ng/mL) TT” value in [2] was 4. ng/mL. In addition, the “Kass × 10^6 (L/mole) Human Thrombin” value in series [6] was 630. For the same molecule, in [7], the “Human Plasma Anticoagulation 2× Clotting time (ng/mL) APTT” value is reported as 100 ng/mL. Further, in series [8], the “Human Plasma Anticoagulation 2× Clotting time (ng/mL) PT” value is 170 ng/mL.
